Source: DBAASP
In brackets after ≈: the same amount, converted by molar mass. Several values for one entry are separate records, joined by “and”; a condition that tells them apart may be missing. Equal entries are not always repeated.

Assays:
Assay in all cases: ≥ marks a high value that may be exact or a test limit, other limits are often not marked, values filed in µg/mL are converted to µM
Pseudomonas syringae = tested on: Pseudomonas syringae
[1] = tested on: Xanthomonas axonopodis pv. phaseoli ATCC 9563
[2] = tested on: Aspergillus flavus KCTC 9471
Escherichia coli = tested on: Escherichia coli
Saccharomyces cerevisiae = tested on: Saccharomyces cerevisiae
Bacillus subtilis = tested on: Bacillus subtilis
[3] = tested on: Aspergillus fumigatus KCTC 6145
Staphylococcus aureus = tested on: Staphylococcus aureus
Salmonella typhimurium = tested on: Salmonella typhimurium
[4] = tested on: Staphylococcus epidermidis
Proteus vulgaris = tested on: Proteus vulgaris
Fusarium verticillioides = tested on: Fusarium verticillioides
[5] = tested on: Escherichia coli O157:H7 ATCC 43895
Botrytis cinerea = tested on: Botrytis cinerea
Trichosporon beigelii = tested on: Trichosporon beigelii
Pseudomonas aeruginosa = tested on: Pseudomonas aeruginosa
[6] = tested on: Candida albicans KCTC 7270
[7] = tested on: Listeria monocytogenes KCTC 3710
[8] = tested on: Fusarium solani MTCC 10158
[9] = tested on: Bacillus subtilis KCTC 1998
[10] = tested on: Escherichia coli ATCC 25922
[11] = tested on: Staphylococcus aureus ATCC 29213
[12] = tested on: Listeria monocytogenes ATCC 3710
[13] = tested on: Pseudomonas aeruginosa ATCC 15692
[14] = tested on: Proteus vulgaris KCTC 2433
[15] = tested on: Escherichia coli NCTC 10418
[16] = tested on: Candida albicans NCPF 1467
[17] = tested on: Staphylococcus aureus NCTC 10788
[18] = tested on: Staphylococcus aureus ATCC 12493
Staphylococcus aureus MR = tested on: Staphylococcus aureus MR
Enterococcus faecalis VR = tested on: Enterococcus faecalis VR
[19] = tested on: Candida albicans NCTC 3179
[20] = tested on: Staphylococcus aureus ATCC 25923
[21] = tested on: Rhizopus stolonifer CECT 2344
[22] = tested on: Penicillium expansum EPS 26
[23] = tested on: Aspergillus niger CECT 2694
[24] = tested on: Fusarium oxysporum f. sp. lycopersici ATCC 201829

CC[C@H](C)[C@H](NC(=O)[C@H](CCCCN)NC(=O)[C@H](CC(N)=O)NC(=O)[C@H](CCCCN)NC(=O)[C@H](CC(C)C)NC(=O)[C@H](Cc1ccc(O)cc1)NC(=O)[C@H](CCC(N)=O)NC(=O)[C@H](CCCN=C(N)N)NC(=O)[C@@H](NC(=O)[C@@H](NC(=O)[C@H](CCCCN)NC(=O)[C@H](CCCCN)NC(=O)CNC(=O)[C@H](C)N)[C@@H](C)O)[C@@H](C)CC)C(=O)N[C@@H](CCCCN)C(=O)N[C@@H](CCCCN)C(=O)N[C@@H](CCCCN)C(=O)NCC(=O)N[C@@H](CCCN=C(N)N)C(=O)N[C@@H](CCCCN)C(=O)N[C@@H](Cc1c[nH]c2ccccc12)C(=O)N[C@H](C(=O)N[C@H](C(=O)N[C@@H](C)C(=O)N[C@@H](Cc1c[nH]c2ccccc12)C(=O)O)[C@@H](C)CC)C(C)C [AGKKTIRQYLKNKIKKKGRKWVIAW]
MIC (Pseudomonas syringae): 8 µM (≈ 24.3 µg/mL) | MIC [1]: 2 µM (≈ 6.09 µg/mL)

CC[C@H](C)[C@H](NC(=O)[C@H](CCCCN)NC(=O)[C@H](CO)NC(=O)[C@H](Cc1ccccc1)NC(=O)[C@H](CC(C)C)NC(=O)[C@H](CCCCN)NC(=O)[C@H](CCC(=O)O)NC(=O)[C@H](CC(C)C)NC(=O)[C@H](CCCN=C(N)N)NC(=O)[C@H](CCCCN)NC(=O)[C@H](Cc1ccccc1)NC(=O)[C@@H](NC(=O)[C@H](CCCCN)NC(=O)[C@H](CCCCN)NC(=O)[C@H](C)N)C(C)C)C(=O)N[C@@H](Cc1ccccc1)C(=O)N[C@@H](CC(N)=O)C(=O)N[C@@H](Cc1ccccc1)C(=O)N[C@@H](CCCCN)C(N)=O [AKKVFKRLEKLFSKIFNFK]
MIC [2]: ≥ 50 µM | MIC (Escherichia coli): 3.13 µM (≈ 7.42 µg/mL) | MIC (Saccharomyces cerevisiae): 25 µM (≈ 59.3 µg/mL) | MIC (Bacillus subtilis): 1.56 µM (≈ 3.7 µg/mL) | MIC [3]: ≥ 35.4 µM | MIC (Staphylococcus aureus): 3.13 µM (≈ 7.42 µg/mL) | MIC (Salmonella typhimurium): 0.39 µM (≈ 0.925 µg/mL) | MIC [4]: 6.25 µM (≈ 14.8 µg/mL) | MIC (Proteus vulgaris): 3.13 µM (≈ 7.42 µg/mL) | MIC (Fusarium verticillioides): 12.5 µM (≈ 29.6 µg/mL) | MIC [5]: 6.25 µM (≈ 14.8 µg/mL) | MIC (Botrytis cinerea): 12.5 µM (≈ 29.6 µg/mL) | MIC (Trichosporon beigelii): 3.13 µM (≈ 7.42 µg/mL) | MIC (Pseudomonas aeruginosa): 6.25 µM (≈ 14.8 µg/mL) | MIC [6]: 25 µM (≈ 59.3 µg/mL) | MIC [7]: 0.78 µM (≈ 1.85 µg/mL)

CC(C)C[C@H](NC(=O)[C@H](C)NC(=O)[C@H](CCCCN)NC(=O)[C@H](CC(C)C)NC(=O)[C@H](CCCCN)NC(=O)[C@H](CCCN=C(N)N)NC(=O)[C@H](CCCN=C(N)N)NC(=O)[C@H](Cc1c[nH]c2ccccc12)NC(=O)[C@H](C)N)C(=O)N[C@@H](C)C(=O)N1CCC[C@H]1C(=O)N[C@@H](C)C(=O)N[C@@H](CCCCN)C(=O)N[C@@H](CCCCN)C(=O)N[C@@H](C)C(=O)N[C@@H](CCCCN)C(=O)N[C@H](C(=O)O)C(C)C [AWRRKLKALAPAKKAKV]
MIC [8]: 22.4 µM and ≥ 50 µM

CC[C@H](C)[C@H](NC(=O)[C@H](Cc1cnc[nH]1)NC(=O)[C@H](Cc1cnc[nH]1)NC(=O)[C@@H](NC(=O)[C@H](CC(C)C)NC(=O)[C@H](Cc1cnc[nH]1)NC(=O)CNC(=O)[C@H](CCCCN)NC(=O)CNC(=O)[C@H](Cc1cnc[nH]1)NC(=O)[C@H](CCCCN)NC(=O)[C@@H](NC(=O)[C@H](CO)NC(=O)CNC(=O)[C@H](CCCCN)NC(=O)[C@H](Cc1ccccc1)NC(=O)[C@H](CCCN=C(N)N)NC(=O)[C@H](CCCCN)NC(=O)[C@@H](N)Cc1ccccc1)C(C)C)C(C)C)C(=O)NCC(=O)N[C@H](C(=O)N[C@@H](C)C(=O)N[C@@H](CC(C)C)C(N)=O)C(C)C [FKRFKGSVKHGKGHLVHHIGVAL]
MIC [9]: 4 µM (≈ 10.2 µg/mL) | MIC [10]: 2 µM and 4 µM | MIC [11]: 8 µM and 16 µM | MIC [12]: 8 µM and 4 µM | MIC [13]: ≥ 32 µM and 16 µM | MIC [14]: 4 µM and 8 µM

CC(C)C[C@H](NC(=O)[C@H](CC(C)C)NC(=O)[C@H](CC(C)C)NC(=O)[C@@H]1CCCN1C(=O)[C@H](CC(C)C)NC(=O)[C@@H](N)Cc1ccccc1)C(=O)N[C@@H](C)C(=O)NCC(=O)N[C@@H](CC(C)C)C(=O)N1CCC[C@H]1C(=O)N[C@@H](CCCCN)C(=O)N[C@@H](Cc1ccccc1)C(=O)N[C@@H](CC(C)C)C(=O)N[C@H]1CSSC[C@@H](C(=O)O)NC(=O)[C@H](CCCCN)NC(=O)[C@H](CCCCN)NC(=O)[C@H](Cc2ccccc2)NC(=O)[C@H](C(C)C)NC(=O)[C@H](CC(C)C)NC1=O [FLPLLLAGLPKFLCLVFKKC]
MIC [15]: ≥ 512 µM | MIC [16]: 16 µM (≈ 36.2 µg/mL) | MIC [17]: 16 µM (≈ 36.2 µg/mL) | MIC [18]: 16 µM (≈ 36.2 µg/mL)

CC(C)C[C@H](NC(=O)CNC(=O)[C@H](C)NC(=O)[C@H](CCCN=C(N)N)NC(=O)[C@H](CO)NC(=O)[C@H](CO)NC(=O)[C@H](CCCN=C(N)N)NC(=O)[C@@H](N)[C@@H](C)O)C(=O)N[C@@H](CCC(N)=O)C(=O)N[C@@H](Cc1c[nH]c2ccccc12)C(=O)N1CCC[C@H]1C(=O)N[C@H](C(=O)NCC(=O)N[C@@H](CCCN=C(N)N)C(=O)N[C@H](C(=O)N[C@@H](Cc1cnc[nH]1)C(=O)N[C@@H](CCCN=C(N)N)C(=O)N[C@@H](CC(C)C)C(=O)N[C@@H](CC(C)C)C(=O)N[C@@H](CCCN=C(N)N)C(=O)N[C@@H](CCCCN)C(=O)O)C(C)C)C(C)C [TRSSRAGLQWPVGRVHRLLRK]
MIC (Escherichia coli): 1 µM (≈ 2.47 µg/mL) | MIC (Staphylococcus aureus MR): 0.707 µM (≈ 1.75 µg/mL) | MIC (Enterococcus faecalis VR): 1 µM (≈ 2.47 µg/mL) | MIC (Bacillus subtilis): 0.5 µM (≈ 1.24 µg/mL) | MIC (Staphylococcus aureus): 1 µM (≈ 2.47 µg/mL) | MIC (Salmonella typhimurium): 0.5 µM (≈ 1.24 µg/mL) | MIC [4]: 2 µM (≈ 4.95 µg/mL) | MIC (Pseudomonas aeruginosa): 2 µM (≈ 4.95 µg/mL)

CC[C@H](C)[C@H](NC(=O)[C@H](CCCCN)NC(=O)[C@@H](NC(=O)[C@@H](NC(=O)[C@H](C)NC(=O)[C@@H]1CCCN1C(=O)[C@H](CC(C)C)NC(=O)[C@H](Cc1c[nH]c2ccccc12)NC(=O)[C@@H](N)[C@@H](C)O)C(C)C)[C@@H](C)CC)C(=O)N[C@@H](CCC(N)=O)C(=O)N[C@@H](C)C(=O)N[C@@H](Cc1cnc[nH]1)C(=O)N[C@@H](Cc1c[nH]c2ccccc12)C(=O)N[C@@H](CCCN=C(N)N)C(=O)NCC(=O)N[C@@H](Cc1ccc(O)cc1)C(=O)N[C@@H](CCCN=C(N)N)C(=O)N[C@@H](CCC(N)=O)C(=O)N[C@@H](CCCN=C(N)N)C(=O)N[C@@H](CCCCN)C(=O)N[C@H](C(=O)N[C@@H](Cc1ccc(O)cc1)C(=O)N[C@@H](CC(C)C)C(=O)O)[C@@H](C)CC [TWLPAVIKIQAHWRGYRQRKIYL]
MIC [10]: 1.97 µM (≈ 5.7 µg/mL) | MIC [19]: 24.8 µM (≈ 72 µg/mL) | MIC [20]: 1.66 µM (≈ 4.8 µg/mL)

CC[C@H](C)[C@H](NC(=O)[C@H](CCCCN)NC(=O)[C@H](CCCCN)NC(=O)[C@H](Cc1ccccc1)NC(=O)[C@H](CC(C)C)NC(=O)[C@H](CCCCN)NC(=O)[C@@H](N)Cc1c[nH]c2ccccc12)C(=O)N[C@@H](CC(C)C)C(=O)N[C@@H](CCCCN)C(=O)N[C@H](C(=O)N[C@@H](CC(C)C)C(=O)O)C(C)C [WKLFKKILKVL]
MIC [21]: ≥ 100 µM | MIC [22]: ≥ 100 µM | MIC [23]: 22.4 µM (≈ 31.7 µg/mL) | MIC [24]: 22.4 µM (≈ 31.7 µg/mL)
